In US12653830B2, “Substituted imidazoquinoxaline compounds and uses thereof” (Impact Therapeutics (Shanghai), Inc, priority 2019, dated 2026):

What was measured:
[1] = system: human breast cancer cell MDA-MB-468; experiment: MTT proliferation assay, MDA-MB-468; type: cell-based; settings: Homo sapiens, MDA-MB-468, 168 h, 7 days, single agent, read-out: IC50, inhibition of proliferation of MDA-MB-468
Procedure, shortened: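 Cells seeded overnight, then treated 7 days at 37 °C, 5% CO2 in RPMI 1640 + 5% FBS with 1% final DMSO, medium changed on day 4. MTT (0.5 mg/mL) for 4 h, DMSO-solubilised, absorbance at 552 and 693 nm; viability relative to DMSO after background subtraction, IC50 from log-concentration curves.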

[2] = system: human colon cancer cell SW620; experiment: MTT proliferation assay in combination with CPT-11, SW620; type: cell-based; settings: Homo sapiens, SW-620, 120 h, medium containing 205 nM CPT-11, 5 days, read-out: IC50, inhibition of proliferation of SW620 combined with CPT-11
Procedure, shortened: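 SW620 cells in RPMI 1640 + 10% FBS are seeded overnight, then given compound in fresh medium containing 205 nM CPT-11 (1% DMSO final) for 5 days at 37 °C, 5% CO2. Viability is read by MTT (0.5 mg/mL, 4 h) at 552/690 nm, normalised to background-corrected DMSO wells. IC50 is taken from viability versus log concentration.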

ATM kinase = target: T1, ATM kinase (Homo sapiens, UniProt Q13315); experiment: In vitro ATM kinase assay (Cisbio HTRF, p53 substrate); type: biochemical; settings: 30 μM ATP
T1 construct: purchased Eurofins 14-933
T1 sequence (Q13315 whole entry): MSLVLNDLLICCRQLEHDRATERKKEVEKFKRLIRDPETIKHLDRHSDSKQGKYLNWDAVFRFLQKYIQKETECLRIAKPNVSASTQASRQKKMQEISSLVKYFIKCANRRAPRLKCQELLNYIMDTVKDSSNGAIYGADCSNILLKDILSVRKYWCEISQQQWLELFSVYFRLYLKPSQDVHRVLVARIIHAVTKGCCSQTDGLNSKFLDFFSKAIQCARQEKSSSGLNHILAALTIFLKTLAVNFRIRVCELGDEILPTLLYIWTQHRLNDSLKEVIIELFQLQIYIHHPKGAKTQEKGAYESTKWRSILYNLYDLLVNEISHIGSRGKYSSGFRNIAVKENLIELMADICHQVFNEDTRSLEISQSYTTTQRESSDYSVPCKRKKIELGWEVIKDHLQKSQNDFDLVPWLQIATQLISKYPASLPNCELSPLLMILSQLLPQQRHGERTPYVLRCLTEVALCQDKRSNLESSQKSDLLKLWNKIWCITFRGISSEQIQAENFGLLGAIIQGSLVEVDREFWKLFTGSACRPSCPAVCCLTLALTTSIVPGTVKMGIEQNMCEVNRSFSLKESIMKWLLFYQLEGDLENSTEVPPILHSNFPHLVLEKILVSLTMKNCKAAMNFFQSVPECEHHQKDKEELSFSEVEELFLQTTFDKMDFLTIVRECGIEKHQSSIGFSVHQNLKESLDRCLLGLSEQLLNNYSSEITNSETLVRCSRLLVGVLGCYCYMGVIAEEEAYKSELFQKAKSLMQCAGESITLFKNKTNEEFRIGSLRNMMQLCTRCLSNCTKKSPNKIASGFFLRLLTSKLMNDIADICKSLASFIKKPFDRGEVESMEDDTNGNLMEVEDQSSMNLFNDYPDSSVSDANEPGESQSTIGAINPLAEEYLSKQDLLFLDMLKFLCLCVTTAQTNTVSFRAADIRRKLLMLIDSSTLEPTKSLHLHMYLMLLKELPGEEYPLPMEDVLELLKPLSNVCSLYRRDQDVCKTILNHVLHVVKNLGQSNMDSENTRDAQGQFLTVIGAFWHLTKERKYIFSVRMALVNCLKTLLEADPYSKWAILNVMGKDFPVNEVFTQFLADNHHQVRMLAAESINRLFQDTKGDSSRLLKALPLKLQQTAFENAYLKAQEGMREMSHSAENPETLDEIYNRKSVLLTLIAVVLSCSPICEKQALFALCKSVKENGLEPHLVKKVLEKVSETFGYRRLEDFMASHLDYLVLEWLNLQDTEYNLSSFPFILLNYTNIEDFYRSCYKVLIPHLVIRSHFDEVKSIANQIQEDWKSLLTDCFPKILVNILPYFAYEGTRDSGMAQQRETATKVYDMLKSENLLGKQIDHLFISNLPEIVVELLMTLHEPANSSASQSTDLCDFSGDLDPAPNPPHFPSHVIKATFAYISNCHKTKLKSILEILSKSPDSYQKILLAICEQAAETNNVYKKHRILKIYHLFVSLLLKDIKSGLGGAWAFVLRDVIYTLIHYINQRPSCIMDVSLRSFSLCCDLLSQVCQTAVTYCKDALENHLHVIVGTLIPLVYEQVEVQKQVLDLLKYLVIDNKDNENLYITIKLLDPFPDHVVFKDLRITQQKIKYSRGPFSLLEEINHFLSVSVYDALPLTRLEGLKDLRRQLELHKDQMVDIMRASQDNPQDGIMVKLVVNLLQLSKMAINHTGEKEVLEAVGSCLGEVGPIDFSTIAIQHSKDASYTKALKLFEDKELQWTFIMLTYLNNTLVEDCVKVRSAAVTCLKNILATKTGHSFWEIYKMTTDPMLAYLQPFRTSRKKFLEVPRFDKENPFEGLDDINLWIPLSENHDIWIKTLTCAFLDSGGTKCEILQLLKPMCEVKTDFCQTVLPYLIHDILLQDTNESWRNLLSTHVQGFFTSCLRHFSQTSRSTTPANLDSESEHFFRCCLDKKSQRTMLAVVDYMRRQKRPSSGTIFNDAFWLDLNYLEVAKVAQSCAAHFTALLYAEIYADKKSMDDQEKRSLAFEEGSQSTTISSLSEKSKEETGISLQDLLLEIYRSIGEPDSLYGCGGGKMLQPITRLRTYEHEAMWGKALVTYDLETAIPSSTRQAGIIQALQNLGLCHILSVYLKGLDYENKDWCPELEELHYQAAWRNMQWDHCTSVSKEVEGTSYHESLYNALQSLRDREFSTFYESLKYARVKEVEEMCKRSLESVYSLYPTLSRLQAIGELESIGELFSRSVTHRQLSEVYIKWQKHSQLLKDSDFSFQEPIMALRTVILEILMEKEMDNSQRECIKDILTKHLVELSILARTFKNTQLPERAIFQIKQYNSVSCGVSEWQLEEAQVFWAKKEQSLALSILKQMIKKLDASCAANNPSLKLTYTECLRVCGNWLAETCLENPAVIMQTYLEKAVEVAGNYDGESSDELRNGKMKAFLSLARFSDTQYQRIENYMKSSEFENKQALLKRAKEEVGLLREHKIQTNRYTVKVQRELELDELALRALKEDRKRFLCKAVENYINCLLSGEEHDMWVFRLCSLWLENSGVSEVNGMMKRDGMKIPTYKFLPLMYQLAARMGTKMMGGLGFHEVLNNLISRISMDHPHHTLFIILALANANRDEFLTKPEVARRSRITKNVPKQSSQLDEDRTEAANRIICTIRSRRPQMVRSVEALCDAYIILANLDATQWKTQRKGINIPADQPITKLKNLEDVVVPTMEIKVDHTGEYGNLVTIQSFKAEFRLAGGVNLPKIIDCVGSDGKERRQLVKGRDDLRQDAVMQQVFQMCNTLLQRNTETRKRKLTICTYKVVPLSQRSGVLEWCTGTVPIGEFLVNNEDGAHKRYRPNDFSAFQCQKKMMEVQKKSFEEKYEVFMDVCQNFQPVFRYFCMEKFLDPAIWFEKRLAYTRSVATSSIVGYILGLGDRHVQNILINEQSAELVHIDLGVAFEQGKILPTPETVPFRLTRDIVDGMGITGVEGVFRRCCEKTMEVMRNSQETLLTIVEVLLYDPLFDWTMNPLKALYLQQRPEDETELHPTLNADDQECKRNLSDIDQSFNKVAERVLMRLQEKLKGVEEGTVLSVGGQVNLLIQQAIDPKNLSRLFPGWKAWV

IC50 [1] [nM]	IC50 [2] [nM]	IC50 (ATM kinase) [nM]	SMILES
7.6	12.1	0.46	Cc1nc(N2C[C@@H](C)O[C@@H](C)C2)n2c1cnc1ccc(-c3ccc(N4CCC(N)CC4)nc3)cc12 [Example 48, 1-(5-(1-((2S,6R)-2,6-dimethylmorpholino)-3-methylimidazo[1,5-a]quinoxalin-8-yl)pyridin-2-yl)piperidin-4-amine]
4.5	7.1	0.8	CNC1CCN(c2ccc(-c3ccc4ncc5c(C)nc(N6C[C@@H](C)O[C@@H](C)C6)n5c4c3)cn2)CC1 [Example 49, 1-(5-(1-((2S,6R)-2,6-dimethylmorpholino)-3-methylimidazo[1,5-a]quinoxalin-8-yl)pyridin-2-yl)-N-methylpiperidin-4-amine]
8.1	6.3	0.41	CCNC1CCN(c2ccc(-c3ccc4ncc5c(C)nc(N6C[C@@H](C)O[C@@H](C)C6)n5c4c3)cn2)CC1 [Example 50, 1-(5-(1-((2S,6R)-2,6-dimethylmorpholino)-3-methylimidazo[1,5-a]quinoxalin-8-yl)pyridin-2-yl)-N-ethylpiperidin-4-amine]
17.8	23.3	0.19	Cc1nc(N2C[C@@H](C)O[C@@H](C)C2)n2c1cnc1ccc(-c3ccc(OCCCN4CCOCC4)nc3)cc12 [Example 58, (2S,6R)-2,6-dimethyl-4-(3-methyl-8-(6-(3-morpholinopropoxy)pyridin-3-yl)imidazo[1,5-a]quinoxalin-1-yl)morpholine]
9.2	12	0.19	Cc1nc(N2C[C@@H](C)O[C@@H](C)C2)n2c1cnc1ccc(-c3ccc(OCCCN4CCN(C)CC4)nc3)cc12 [Example 59, (2S,6R)-2,6-dimethyl-4-(3-methyl-8-(6-(3-(4-methylpiperazin-1-yl)propoxy)pyridin-3-yl)imidazo[1,5-a]quinoxalin-1-yl)morpholine]
